Patent US11767322B2 (BRISTOL-MYERS SQUIBB COMPANY, priority 2020, dated 2023)
Read-outs that look alike come from different tables or passages of the source.

How the values were obtained:
[1] = molecular target: T1, His-GST-TVMV-hRIPK1(1-324) (Homo sapiens, UniProt Q13546); experiment: biochemical; type: binding; conditions: read-out: RIPK1 IC50
T1 construct: The coding region of human RIPK1(1-324) flanked by NdeI site at 5′ end; made in house; host or cells: Spodoptera frugiperda Sf9 insect cells (baculovirus, Bac-to-Bac)
T1 sequence (Q13546 1-324): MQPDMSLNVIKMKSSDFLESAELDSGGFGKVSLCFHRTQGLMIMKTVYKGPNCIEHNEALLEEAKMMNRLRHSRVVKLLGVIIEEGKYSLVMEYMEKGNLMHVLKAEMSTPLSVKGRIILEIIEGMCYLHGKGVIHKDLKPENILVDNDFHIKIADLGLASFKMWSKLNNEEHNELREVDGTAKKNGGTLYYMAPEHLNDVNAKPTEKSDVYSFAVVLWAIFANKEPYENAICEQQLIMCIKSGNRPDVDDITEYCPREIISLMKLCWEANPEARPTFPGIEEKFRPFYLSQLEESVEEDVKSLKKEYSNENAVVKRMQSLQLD

[2] = tested on: MLKL phosphorylation in HT29-L23 human colorectal adenocarcinoma cells; experiment: MLKL phosphorylation high-content assay; type: cell-based
[3] = HTRF probe displacement, 1 h at rt
[4] = read-out: pMLKL IC50, HT29-L23 cells, necroptosis induced with TNFα, SMAC mimetic and Z-VAD, 6 h, maximal inhibition defined by Nec1s
[5] = Homo sapiens, 6 h, read-out: pMLKL IC50, HT29-L23 cells, necroptosis induced with TNFα, SMAC mimetic and Z-VAD, 6 h, maximal inhibition defined by Nec1s

For [2H]C([2H])([2H])c1ccc(-c2ccn3nc(N)nc3c2)c(F)c1C(=O)NCC1(C(O)c2ccc(F)cc2)CC1 (single isomer, unassigned) [Example 308, 3-(2-amino-[1,2,4]triazolo[1,5-a]pyridin-7-yl)-2-fluoro-N-((1-((4-fluorophenyl) (hydroxy)methyl)cyclopropyl)methyl)-6-(methyl-d3)benzamide], the IC50 [1, 3] was 12 nM and the IC50 [2, 4] was 9 nM.
With Cc1ccc(-c2ccn3nc(N)nc3c2)c(F)c1C(=O)NCCC(C)(F)c1ccc(Cl)cc1 (centres unmarked) [Example 228, 3-(2-amino-[1,2,4]triazolo[1,5-a]pyridin-7-yl)-N-(3-(4-chlorophenyl)-3-fluorobutyl)-2-fluoro-6-methylbenzamide] the IC50 [1, 3] was 0.9 nM and the IC50 [2, 5] was 1 nM.
[2H]C(O)(c1ccc(C(F)F)cc1)C(F)(F)CNC(=O)c1c(Cl)ccc(-c2ccn3nc(N)nc3c2)c1F (single isomer, unassigned) [Example 311, 3-(2-amino-[1,2,4]triazolo[1,5-a]pyridin-7-yl)-6-chloro-N-(3-(4-(difluoromethyl)phenyl)-2,2-difluoro-3-hydroxypropyl-3-d)-2-fluorobenzamide] showed an IC50 [1, 3] of 5 nM and an IC50 [2, 5] of 0.8 nM.
Cc1cc(F)c(-c2ccn3nc(N)nc3c2)cc1C(=O)NCC[C@H](O)c1ccc(Cl)cc1 [Example 1, (S)-5-(2-amino-[1,2,4]triazolo[1,5-a]pyridin-7-yl)-N-(3-(4-chlorophenyl)-3-hydroxypropyl)-4-fluoro-2-methylbenzamide] gave an IC50 [1, 3] of 1.2 nM and an IC50 [2, 5] of 1.3 nM.
Work on Nc1nc2cc(-c3ccc(Cl)c(C(=O)NCC(F)(F)C(O)c4cccc(C(F)(F)F)n4)c3F)ccn2n1 (single isomer, unassigned) [Example 255, 3-(2-amino-[1,2,4]triazolo[1,5-a]pyridin-7-yl)-6-chloro-N-(2,2-difluoro-3-hydroxy-3-(6-(trifluoromethyl)pyridin-2-yl)propyl)-2-fluorobenzamide] yielded an IC50 [1, 3] of 17 nM and an IC50 [2, 4] of 79 nM.
Work on Nc1nc2cc(-c3ccc(Cl)c(C(=O)NCC(F)(F)C(O)c4cc(F)ccc4F)c3F)ccn2n1 (single isomer, unassigned) [Example 177, 3-(2-amino-[1,2,4]triazolo[1,5-a]pyridin-7-yl)-6-chloro-N-(3-(2,5-difluorophenyl)-2,2-difluoro-3-hydroxypropyl)-2-fluorobenzamide] yielded an IC50 [1, 3] of 1.8 nM and an IC50 [2, 4] of 23 nM.
Cc1ccc(-c2ccn3nc(N)nc3c2)c(F)c1C(=O)NCC(F)(F)C(O)c1ccnc(C(F)(F)F)c1 (single isomer, unassigned) [Example 260, 3-(2-amino-[1,2,4]triazolo[1,5-a]pyridin-7-yl)-N-(2,2-difluoro-3-hydroxy-3-(2-(trifluoromethyl)pyridin-4-yl)propyl)-2-fluoro-6-methylbenzamide] gave an IC50 [1, 3] of 8.4 nM and an IC50 [2, 4] of 3.2 nM.
Work on [2H]C([2H])([2H])C(O)(c1ccc(F)cc1)C(F)CNC(=O)c1c(C(F)F)ccc(-c2ccn3nc(N)nc3c2)c1F (single isomer, unassigned) [Example 196, 3-(2-amino-[1,2,4]triazolo[1,5-a]pyridin-7-yl)-6-(difluoromethyl)-2-fluoro-N-(2-fluoro-3-(4-fluorophenyl)-3-hydroxybutyl-4,4,4-d3)benzamide] yielded an IC50 [1, 3] of 14 nM and an IC50 [2, 4] of 1 nM.
In the case of Nc1nc2cc(-c3ccc(Cl)c(C(=O)NCC(F)(F)C(O)c4ccc(Cl)cc4F)c3F)ccn2n1 (single isomer, unassigned) [Example 162, 3-(2-amino-[1,2,4]triazolo[1,5-a]pyridin-7-yl)-6-chloro-N-(3-(4-chloro-2-fluorophenyl)-2,2-difluoro-3-hydroxypropyl)-2-fluorobenzamide], the IC50 [1, 3] is reported as 1.6 nM and the IC50 [2, 4] is reported as 3.1 nM.
In the case of [2H]C([2H])(CC([2H])(O)c1ccc(Cl)cc1)NC(=O)c1c(Cl)ccc(-c2ccn3nc(N)nc3c2)c1F (single isomer, unassigned) [Example 77, 3-(2-amino-[1,2,4]triazolo[1,5-a]pyridin-7-yl)-6-chloro-N-(3-(4-chlorophenyl)-3-hydroxypropyl-1,1,3-d3)-2-fluorobenzamide], the IC50 [1, 3] is reported as 2.9 nM and the IC50 [2, 4] is reported as 7.7 nM.
With [2H]C([2H])([2H])c1ccc(-c2ccn3nc(N)nc3c2)c(F)c1C(=O)NC[C@@H](F)[C@@](C)(O)c1ccc(F)cc1 [Example 216, 3-(2-amino-[1,2,4]triazolo[1,5-a]pyridin-7-yl)-2-fluoro-N-((2R,3S)-2-fluoro-3-(4-fluorophenyl)-3-hydroxybutyl)-6-(methyl-d3)benzamide] the IC50 [1, 3] was 4.7 nM and the IC50 [2, 5] was 0.4 nM.
[2H]C([2H])([2H])c1ccc(C(O)C(F)(F)CNC(=O)c2c(C([2H])([2H])[2H])ccc(-c3ccn4nc(N)nc4c3)c2F)cc1 (single isomer, unassigned) [Example 201, 3-(2-amino-[1,2,4]triazolo[1,5-a]pyridin-7-yl)-N-(2,2-difluoro-3-hydroxy-3-(4-(methyl-d3)phenyl)propyl)-2-fluoro-6-(methyl-d3)benzamide] gave an IC50 [1, 3] of 6.7 nM and an IC50 [2, 4] of 0.9 nM.
In the case of Cc1ccc(-c2ccn3nc(N)nc3c2)c(F)c1C(=O)NCC(C)(F)C(O)c1ccc(F)cc1 (single isomer, unassigned) [Example 204, 3-(2-amino-[1,2,4]triazolo[1,5-a]pyridin-7-yl)-2-fluoro-N-(2-fluoro-3-(4-fluorophenyl)-3-hydroxy-2-methylpropyl)-6-methylbenzamide], the IC50 [1, 3] is reported as 5.8 nM and the IC50 [2, 4] is reported as 2.7 nM.
In the case of COc1ncc(-c2ccn3nc(N)nc3c2)cc1C(=O)NCCC(O)c1ccc(F)cc1 (centres unmarked) [Example 78], the IC50 ([1]; Table 23, representative compounds from WO2018/148626) is reported as 120 nM and the IC50 ([2]; Homo sapiens, Table 23, representative compounds from WO2018/148626, read-out: pMLKL IC50) is reported as 146 nM.
Nc1nc2cc(-c3ccc(Cl)c(C(=O)NCC(F)(F)C(O)c4ccc(Cl)cc4F)c3F)ccn2n1 (single isomer, unassigned) [Example 163, 3-(2-amino-[1,2,4]triazolo[1,5-a]pyridin-7-yl)-6-chloro-N-(3-(4-chloro-2-fluorophenyl)-2,2-difluoro-3-hydroxypropyl)-2-fluorobenzamide] showed an IC50 [1, 3] of 0.3 nM and an IC50 [2, 4] of 1.3 nM.
For Cc1ccc(-c2ccn3nc(N)nc3c2C)c(F)c1C(=O)NCC[C@H](O)c1ccc(Cl)cc1 (single isomer, unassigned; enantiomer 1) [Example 137], the IC50 [1, 3] was 9.7 nM and the IC50 ([2]; HT29-L23 cells, necroptosis induced with TNFα, SMAC mimetic and Z-VAD, 6 h, maximal inhibition defined by Nec1s, read-out: pMLKL IC50) was 0.9 nM.
Cc1ccc(-c2ccn3nc(N)nc3c2)c(F)c1C(=O)NCCC(O)c1cccc(Cl)c1 (single isomer, unassigned) [Example 45, 3-(2-amino-[1,2,4]triazolo[1,5-a]pyridin-7-yl)-N-(3-(3-chlorophenyl)-3-hydroxypropyl)-2-fluoro-6-methylbenzamide] gave an IC50 [1, 3] of 3 nM and an IC50 [2, 4] of 7.4 nM.
In the case of Cc1ccc(-c2ccn3nc(N)nc3c2)c(F)c1C(=O)NCC(F)(F)C1(c2ccc(F)cc2)COC1 [Example 246, 3-(2-amino-[1,2,4]triazolo[1,5-a]pyridin-7-yl)-N-(2,2-difluoro-2-(3-(4-fluorophenyl)oxetan-3-yl)ethyl)-2-fluoro-6-methylbenzamide], the IC50 [1, 3] is reported as 15 nM and the IC50 [2, 5] is reported as 2.2 nM.
In the case of Cc1ccc(-c2ccn3nc(N)nc3c2)c(F)c1C(=O)NCC(F)(F)C(O)(c1ccc(F)cc1)C(F)F (centres unmarked) [Example 274, 3-(2-amino-[1,2,4]triazolo[1,5-a]pyridin-7-yl)-2-fluoro-6-methyl-N-(2,2,4,4-tetrafluoro-3-(4-fluorophenyl)-3-hydroxybutyl)benzamide], the IC50 [1, 3] is reported as 19 nM and the IC50 [2, 5] is reported as 0.7 nM.
